Measured values as given in publication PMC3280264 (PLoS ONE, 2012).

Tests used:
[1] = biological target: Human SGLT2 (Homo sapiens, UniProt P31639); test: cell-based
Procedure: (§1) Sodium-dependent Glucose Uptake in Chinese Hamster Ovary (CHO) Cells Expressing SGLT1 and SGLT2 Co-transporters Parental CHO-K (CHOK) cells (commonly used mammalian cells for gene overexpression studies) expressing human or mouse SGLT1 and SGLT2 were utilized in this study. Cells were seeded into 96-well plates. Cells were then washed one time with 0.15 ml assay buffer (137 mM NaCl, 5 mM KCl, 1 mM CaCl2, 1 mM MgCl2, 50 mM HEPES, pH 7.4) at 37°C. […] Then, 5 µl of 6 mM alpha-methyl-D-glucopyranoside (AMG, a selective SGLT1/2 substrate)/^14C-AMG (0.07 µCi) was added to the cells and incubated at 37°C for 2 hours. Next, the cells were washed 3 times with 0.15 ml ice-cold phosphate-buffered saline (PBS). After the final wash was aspirated, 50 µl of microscint 20 (Packard, Meriden, Connecticut, USA) was added. The plate was counted by TopCount (Packard, Meriden, Connecticut, USA).
(§2) Statistical analysis was performed using the program Prism (Graphpad, Monrovia, California, USA). Differences between groups were evaluated using 1-way […] with Dunnett's multiple comparison test or student's t-test (unpaired), as appropriate. Probabilities less than 5% (P<0.05) were considered to be statistically significant. […] All data are presented as mean ± standard error.

[2] = biological target: Mouse SGLT2 (Mus musculus, UniProt Q923I7); test: cell-based
Sequence of Mouse SGLT2 (Q923I7 whole entry): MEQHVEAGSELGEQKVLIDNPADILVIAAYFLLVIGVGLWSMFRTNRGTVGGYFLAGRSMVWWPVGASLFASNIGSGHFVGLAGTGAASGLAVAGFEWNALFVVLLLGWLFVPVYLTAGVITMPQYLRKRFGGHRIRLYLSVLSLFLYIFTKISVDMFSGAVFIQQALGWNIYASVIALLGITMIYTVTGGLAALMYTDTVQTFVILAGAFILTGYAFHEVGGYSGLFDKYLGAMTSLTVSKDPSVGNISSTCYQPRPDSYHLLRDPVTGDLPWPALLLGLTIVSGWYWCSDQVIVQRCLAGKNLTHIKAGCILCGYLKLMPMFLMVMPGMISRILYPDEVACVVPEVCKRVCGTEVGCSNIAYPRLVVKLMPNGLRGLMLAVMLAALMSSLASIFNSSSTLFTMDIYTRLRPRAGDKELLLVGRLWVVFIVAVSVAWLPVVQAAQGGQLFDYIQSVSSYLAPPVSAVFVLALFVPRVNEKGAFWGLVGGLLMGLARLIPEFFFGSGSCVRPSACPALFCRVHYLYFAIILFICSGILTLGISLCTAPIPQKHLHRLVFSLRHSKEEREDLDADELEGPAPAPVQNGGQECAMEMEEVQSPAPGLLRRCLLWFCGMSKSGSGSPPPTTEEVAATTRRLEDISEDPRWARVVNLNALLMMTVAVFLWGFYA
Procedure: as §1, §2

[3] = biological target: T1, glucose transporter 1 (GLUT1) (Rattus norvegicus, UniProt P11167); test: 3H-2-deoxy-glucose uptake in L6 myoblast cells; assay type: cell-based
T1 construct: endogenous in cells; host or cells: L6 rat skeletal muscle myoblasts
T1 sequence (P11167 1-492): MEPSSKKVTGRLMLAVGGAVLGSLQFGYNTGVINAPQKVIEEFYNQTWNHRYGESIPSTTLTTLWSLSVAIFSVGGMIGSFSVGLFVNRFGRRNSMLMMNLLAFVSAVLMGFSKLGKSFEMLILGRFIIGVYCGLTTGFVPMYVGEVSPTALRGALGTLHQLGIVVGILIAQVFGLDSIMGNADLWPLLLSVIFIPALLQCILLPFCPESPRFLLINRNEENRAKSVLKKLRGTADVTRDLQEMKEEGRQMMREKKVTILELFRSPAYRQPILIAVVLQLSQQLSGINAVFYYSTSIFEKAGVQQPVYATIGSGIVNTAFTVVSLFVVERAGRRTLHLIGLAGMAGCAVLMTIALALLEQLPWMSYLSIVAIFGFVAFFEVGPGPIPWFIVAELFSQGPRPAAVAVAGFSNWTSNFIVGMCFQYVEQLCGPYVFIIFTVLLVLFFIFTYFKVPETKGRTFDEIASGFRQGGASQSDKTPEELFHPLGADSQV
Procedure: Cells were maintained in Dulbecco's modified Eagle's medium containing 5.6 mM glucose supplemented with 10% fetal bovine serum, were seeded in 24-well plates at a density of 3.0×10^5 cells/well and cultured for 24 hours in an atmosphere of 5% CO2 at 37°C. […] The transport reaction was initiated by adding 50 µl of 4.5 mM 2-DG (a substrate for GLUTs)/^3H-2-DG (0.625 µCi) followed by incubation for 15 minutes at room temperature. The 2-DG uptake was halted by aspiration of the incubation mixture. Cells were immediately washed 3 times with ice-cold PBS. Samples were extracted with 0.3 N NaOH, and radioactivity was determined by liquid scintillation (Packard, Boston, Massachusetts, USA).

[4] = test system: db/db mice; test: Single-dose blood glucose lowering in db/db mice; assay type: in vivo, mouse; settings: for reduction of BG levels compared with vehicle-treated mice: 1 hour after treatment; for BG level: 6 hours, vehicle 479±3.9
From the text: Four rodent models were used in these experiments: (1) male C57BL/6J mice fed with a high-fat diet (D-12492 with 60 kcal% fat, Research Diets, Inc, New Jersey, USA) (diet-induced obese, insulin resistantmice [DIO]); (2) male C57BL/ksj-db/db hyperglycemic mice; (3) male Zucker fatty (ZF) obese, insulin resistant rats; and (4) male ZDF obese, hyperglycemic rats. All animals were housed according to standard procedures following a protocol approved by the IACUC in Drug Discovery at Johnson & Johnson Pharmaceutical Research & Development, LLC.
BG levels were monitored at 0, 0.5, 1, 3, 6, and 24 hours after dosing. […] BG levels were monitored weekly, and HbA1c, plasma glucose, and insulin levels were determined at the end of the 4-week treatment. An oral glucose tolerance test (OGTT) ([…] of body weight, given by gavage) was conducted in ZDF rats after 4 weeks of treatment. Blood was sampled at 0, 30, 60, and 120 minutes after glucose challenge from the tail vein for measurement of BG levels using a glucometer (One Touch Ultra, LifeScan, Milpitas, California, USA) and plasma insulin using ELISA method (ALPCO, Salem, New Hampshire, USA).

Sequence of Human SGLT2 (P31639 whole entry): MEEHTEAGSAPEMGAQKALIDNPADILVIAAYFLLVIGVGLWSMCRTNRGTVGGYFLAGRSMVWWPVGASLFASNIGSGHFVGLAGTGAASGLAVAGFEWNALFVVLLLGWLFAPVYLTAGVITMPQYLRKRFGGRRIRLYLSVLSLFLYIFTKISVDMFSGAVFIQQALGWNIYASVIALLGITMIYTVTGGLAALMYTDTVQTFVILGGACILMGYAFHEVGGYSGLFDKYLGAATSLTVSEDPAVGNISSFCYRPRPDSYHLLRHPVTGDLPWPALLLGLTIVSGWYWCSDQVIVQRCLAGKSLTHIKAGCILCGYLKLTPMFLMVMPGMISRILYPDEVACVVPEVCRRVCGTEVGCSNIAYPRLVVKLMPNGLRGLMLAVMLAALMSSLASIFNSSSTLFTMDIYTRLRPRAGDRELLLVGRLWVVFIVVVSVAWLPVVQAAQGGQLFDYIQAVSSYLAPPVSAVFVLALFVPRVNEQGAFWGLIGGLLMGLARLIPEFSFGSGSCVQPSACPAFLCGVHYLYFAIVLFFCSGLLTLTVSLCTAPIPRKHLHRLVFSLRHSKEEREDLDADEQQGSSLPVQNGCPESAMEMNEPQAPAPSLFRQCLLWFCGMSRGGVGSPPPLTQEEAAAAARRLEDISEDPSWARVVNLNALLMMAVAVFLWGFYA

IC50 [1]: 4.4 ± 1.2 nM
IC50 [2]: 2 nM
inhibition at 10 µM ([3]; 10 µM, L6 myoblasts, read-out: inhibition of facilitative GLUT-mediated 3H-2-DG uptake): < 50%
IC50 ([3]; 3H-2-DG uptake, rat L6 myoblast cells): > 10 µM
Structure (SMILES): Cc1ccc([C@@H]2O[C@H](CO)[C@@H](O)[C@H](O)[C@H]2O)cc1Cc1ccc(-c2ccc(F)cc2)s1 [canagliflozin, Canagliflozin]
reduction of BG levels compared with vehicle-treated mice ([4]; single dose 1 mg/kg): 22%
BG level ([4]; single dose 1 mg/kg): 208 ± 9.6 mg/dL
reduction of BG levels compared with vehicle-treated mice ([4]; single dose 10 mg/kg): 36%
BG level ([4]; single dose 10 mg/kg): 118 ± 9.0 mg/dL
